# Laboratory results reported in ChEMBL document CHEMBL5291721, “A preclinical secondary pharmacology resource illuminates target-adverse drug reaction associations of marketed drugs” (Nat Commun, 2023).
# Columns and labels:
# [1] = biological target: T1, Alpha-2A adrenergic receptor (Homo sapiens, UniProt P08913); format: functional, cell-based
# T1 sequence (P08913 whole entry): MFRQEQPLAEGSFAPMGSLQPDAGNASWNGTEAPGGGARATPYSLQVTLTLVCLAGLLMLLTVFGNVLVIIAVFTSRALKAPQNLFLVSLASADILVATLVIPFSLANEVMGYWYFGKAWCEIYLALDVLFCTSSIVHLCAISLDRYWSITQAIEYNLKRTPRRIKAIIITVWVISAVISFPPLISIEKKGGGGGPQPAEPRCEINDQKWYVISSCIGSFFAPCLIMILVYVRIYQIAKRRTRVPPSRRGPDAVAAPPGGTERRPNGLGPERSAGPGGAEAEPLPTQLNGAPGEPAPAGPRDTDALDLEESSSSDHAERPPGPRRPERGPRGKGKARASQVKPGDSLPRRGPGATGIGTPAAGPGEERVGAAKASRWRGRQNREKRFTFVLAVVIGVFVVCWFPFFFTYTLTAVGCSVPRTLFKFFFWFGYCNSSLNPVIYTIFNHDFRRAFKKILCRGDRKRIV
# [2] = biological target: T2, Equilibrative nucleoside transporter 1 (Homo sapiens, UniProt Q99808)
# T2 sequence (Q99808 whole entry): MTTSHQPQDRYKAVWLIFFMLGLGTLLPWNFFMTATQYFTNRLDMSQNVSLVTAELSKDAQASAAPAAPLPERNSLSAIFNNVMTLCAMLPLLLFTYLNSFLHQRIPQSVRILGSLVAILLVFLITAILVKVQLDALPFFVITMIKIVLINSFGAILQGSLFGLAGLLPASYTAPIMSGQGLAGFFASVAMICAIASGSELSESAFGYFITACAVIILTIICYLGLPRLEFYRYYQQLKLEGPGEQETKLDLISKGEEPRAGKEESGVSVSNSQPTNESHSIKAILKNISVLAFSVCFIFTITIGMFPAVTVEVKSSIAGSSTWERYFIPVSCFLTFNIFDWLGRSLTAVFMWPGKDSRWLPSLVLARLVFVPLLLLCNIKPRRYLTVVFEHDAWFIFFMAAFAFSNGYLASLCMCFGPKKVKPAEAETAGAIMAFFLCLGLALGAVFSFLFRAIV
# [3] = biological target: T3, Endothelin-1 receptor (Homo sapiens, UniProt P25101)
# T3 sequence (P25101 whole entry): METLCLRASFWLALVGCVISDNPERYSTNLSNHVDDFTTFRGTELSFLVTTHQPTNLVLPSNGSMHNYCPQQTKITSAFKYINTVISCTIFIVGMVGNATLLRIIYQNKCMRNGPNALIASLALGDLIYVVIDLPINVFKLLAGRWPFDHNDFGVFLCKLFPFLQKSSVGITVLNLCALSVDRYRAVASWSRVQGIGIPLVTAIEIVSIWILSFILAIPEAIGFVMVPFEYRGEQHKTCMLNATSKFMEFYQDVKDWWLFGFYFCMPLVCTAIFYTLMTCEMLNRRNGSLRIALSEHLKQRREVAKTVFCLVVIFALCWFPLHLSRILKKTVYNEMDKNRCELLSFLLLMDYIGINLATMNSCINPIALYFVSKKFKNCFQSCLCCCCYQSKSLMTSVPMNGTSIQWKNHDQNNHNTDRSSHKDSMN
# [4] = biological target: Vasopressin V1a receptor (Homo sapiens, UniProt P37288)
# Vasopressin V1a receptor, sequence (P37288 whole entry): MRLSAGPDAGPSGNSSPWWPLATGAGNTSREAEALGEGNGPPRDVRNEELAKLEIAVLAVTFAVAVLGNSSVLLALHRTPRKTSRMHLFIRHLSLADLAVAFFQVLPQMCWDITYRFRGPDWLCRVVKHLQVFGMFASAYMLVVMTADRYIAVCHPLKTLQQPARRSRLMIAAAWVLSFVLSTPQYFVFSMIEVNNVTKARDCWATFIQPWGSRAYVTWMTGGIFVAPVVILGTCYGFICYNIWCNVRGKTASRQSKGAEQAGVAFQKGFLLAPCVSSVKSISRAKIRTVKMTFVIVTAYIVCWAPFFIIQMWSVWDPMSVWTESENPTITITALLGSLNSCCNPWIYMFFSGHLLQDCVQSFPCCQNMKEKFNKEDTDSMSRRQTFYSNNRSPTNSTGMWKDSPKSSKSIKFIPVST
# [5] = biological target: 5-hydroxytryptamine receptor 2B (Homo sapiens, UniProt P41595); format: functional, cell-based
# 5-hydroxytryptamine receptor 2B, sequence (P41595 whole entry): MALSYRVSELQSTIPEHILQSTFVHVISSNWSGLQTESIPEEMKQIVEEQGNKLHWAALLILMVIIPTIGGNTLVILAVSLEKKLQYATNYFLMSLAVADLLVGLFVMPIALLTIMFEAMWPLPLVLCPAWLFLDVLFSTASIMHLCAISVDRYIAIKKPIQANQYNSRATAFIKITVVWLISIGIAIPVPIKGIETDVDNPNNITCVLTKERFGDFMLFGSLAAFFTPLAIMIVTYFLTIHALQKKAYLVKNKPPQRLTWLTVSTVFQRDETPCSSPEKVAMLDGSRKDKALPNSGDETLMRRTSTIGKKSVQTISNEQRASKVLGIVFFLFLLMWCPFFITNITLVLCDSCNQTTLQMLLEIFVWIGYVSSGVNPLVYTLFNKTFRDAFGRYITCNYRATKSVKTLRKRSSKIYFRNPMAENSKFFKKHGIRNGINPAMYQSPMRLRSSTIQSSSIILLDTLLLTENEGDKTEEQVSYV
# [6] = biological target: 3',5'-cyclic-AMP phosphodiesterase 4D (Homo sapiens, UniProt Q08499); format: functional
# 3',5'-cyclic-AMP phosphodiesterase 4D, sequence (Q08499 whole entry): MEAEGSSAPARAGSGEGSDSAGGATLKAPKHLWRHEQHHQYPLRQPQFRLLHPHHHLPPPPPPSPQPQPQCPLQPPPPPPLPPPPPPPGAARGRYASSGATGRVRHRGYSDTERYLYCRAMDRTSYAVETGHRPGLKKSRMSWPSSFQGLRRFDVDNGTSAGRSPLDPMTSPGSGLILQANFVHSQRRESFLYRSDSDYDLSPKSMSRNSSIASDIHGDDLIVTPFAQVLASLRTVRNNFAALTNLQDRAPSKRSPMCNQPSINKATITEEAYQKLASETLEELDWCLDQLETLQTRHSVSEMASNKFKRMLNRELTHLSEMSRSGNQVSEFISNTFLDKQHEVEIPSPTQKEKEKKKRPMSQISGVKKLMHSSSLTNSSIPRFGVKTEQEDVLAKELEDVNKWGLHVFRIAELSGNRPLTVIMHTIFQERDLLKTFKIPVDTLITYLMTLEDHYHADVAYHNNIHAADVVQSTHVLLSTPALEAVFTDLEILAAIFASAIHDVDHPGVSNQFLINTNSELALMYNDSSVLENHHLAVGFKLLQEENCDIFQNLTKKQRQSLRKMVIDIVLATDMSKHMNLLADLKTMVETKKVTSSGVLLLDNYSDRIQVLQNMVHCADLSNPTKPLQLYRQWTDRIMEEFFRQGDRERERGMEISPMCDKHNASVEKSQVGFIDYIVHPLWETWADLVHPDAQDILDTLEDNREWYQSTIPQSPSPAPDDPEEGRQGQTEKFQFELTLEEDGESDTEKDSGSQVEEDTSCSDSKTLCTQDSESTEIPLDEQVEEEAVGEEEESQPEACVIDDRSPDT
# [7] = biological target: Beta-2 adrenergic receptor (Homo sapiens, UniProt P07550); format: functional, cell-based
# Beta-2 adrenergic receptor, sequence (P07550 whole entry): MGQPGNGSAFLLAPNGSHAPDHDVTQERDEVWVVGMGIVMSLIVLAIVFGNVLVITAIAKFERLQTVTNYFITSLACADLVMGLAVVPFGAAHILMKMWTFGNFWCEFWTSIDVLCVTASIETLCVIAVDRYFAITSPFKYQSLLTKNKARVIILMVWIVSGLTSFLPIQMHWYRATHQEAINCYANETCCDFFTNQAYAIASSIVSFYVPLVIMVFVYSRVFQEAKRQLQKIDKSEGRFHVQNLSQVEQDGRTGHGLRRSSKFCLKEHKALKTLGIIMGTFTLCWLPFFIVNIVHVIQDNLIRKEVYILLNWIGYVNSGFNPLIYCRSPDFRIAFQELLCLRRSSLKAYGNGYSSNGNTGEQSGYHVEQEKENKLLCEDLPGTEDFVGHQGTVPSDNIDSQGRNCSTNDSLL
# [8] = biological target: cGMP-inhibited 3',5'-cyclic phosphodiesterase 3A (Homo sapiens, UniProt Q14432); format: functional
# cGMP-inhibited 3',5'-cyclic phosphodiesterase 3A, sequence (Q14432 whole entry): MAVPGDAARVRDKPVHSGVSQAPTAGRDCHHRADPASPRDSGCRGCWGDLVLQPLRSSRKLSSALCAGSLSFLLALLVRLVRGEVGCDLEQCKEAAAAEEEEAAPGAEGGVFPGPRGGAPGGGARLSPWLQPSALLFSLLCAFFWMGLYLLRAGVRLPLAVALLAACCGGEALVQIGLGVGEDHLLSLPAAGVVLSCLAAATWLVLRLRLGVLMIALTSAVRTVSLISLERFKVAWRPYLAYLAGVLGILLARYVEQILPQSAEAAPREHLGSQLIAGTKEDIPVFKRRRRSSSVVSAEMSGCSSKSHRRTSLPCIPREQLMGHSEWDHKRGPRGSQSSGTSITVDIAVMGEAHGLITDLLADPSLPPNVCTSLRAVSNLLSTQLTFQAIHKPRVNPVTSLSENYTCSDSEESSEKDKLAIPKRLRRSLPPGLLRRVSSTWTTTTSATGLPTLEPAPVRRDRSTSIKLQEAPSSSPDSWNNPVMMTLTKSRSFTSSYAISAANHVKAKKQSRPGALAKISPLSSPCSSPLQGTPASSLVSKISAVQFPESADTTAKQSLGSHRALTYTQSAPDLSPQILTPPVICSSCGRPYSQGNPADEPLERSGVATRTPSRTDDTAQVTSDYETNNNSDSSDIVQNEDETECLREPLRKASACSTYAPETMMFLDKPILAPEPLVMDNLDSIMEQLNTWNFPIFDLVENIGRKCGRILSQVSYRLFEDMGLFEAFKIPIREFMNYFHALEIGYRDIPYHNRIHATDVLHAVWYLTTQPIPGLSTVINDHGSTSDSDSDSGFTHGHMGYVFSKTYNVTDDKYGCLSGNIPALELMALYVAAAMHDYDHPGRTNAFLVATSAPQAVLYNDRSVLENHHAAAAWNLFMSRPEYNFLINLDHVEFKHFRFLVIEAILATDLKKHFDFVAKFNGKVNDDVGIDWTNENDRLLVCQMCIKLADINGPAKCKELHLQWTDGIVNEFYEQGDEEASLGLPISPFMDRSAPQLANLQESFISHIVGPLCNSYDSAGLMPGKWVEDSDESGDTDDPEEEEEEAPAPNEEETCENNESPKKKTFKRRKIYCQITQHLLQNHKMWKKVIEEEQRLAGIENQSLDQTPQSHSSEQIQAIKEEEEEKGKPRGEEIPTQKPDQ
# [9] = biological target: T4, Adenosine receptor A3 (Homo sapiens, UniProt P0DMS8)
# T4 sequence (P0DMS8 whole entry): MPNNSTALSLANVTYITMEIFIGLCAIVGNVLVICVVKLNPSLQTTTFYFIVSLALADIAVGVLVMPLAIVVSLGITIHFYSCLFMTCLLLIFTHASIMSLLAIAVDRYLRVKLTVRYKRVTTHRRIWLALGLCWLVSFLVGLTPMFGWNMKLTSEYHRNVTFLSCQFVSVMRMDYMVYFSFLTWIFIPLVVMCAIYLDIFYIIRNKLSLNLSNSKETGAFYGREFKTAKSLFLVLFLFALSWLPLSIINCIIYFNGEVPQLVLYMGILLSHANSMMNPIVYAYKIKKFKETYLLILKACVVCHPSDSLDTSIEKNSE
# [10] = biological target: Vascular endothelial growth factor receptor 2 (Homo sapiens, UniProt P35968); format: functional
# Vascular endothelial growth factor receptor 2, sequence (P35968 whole entry): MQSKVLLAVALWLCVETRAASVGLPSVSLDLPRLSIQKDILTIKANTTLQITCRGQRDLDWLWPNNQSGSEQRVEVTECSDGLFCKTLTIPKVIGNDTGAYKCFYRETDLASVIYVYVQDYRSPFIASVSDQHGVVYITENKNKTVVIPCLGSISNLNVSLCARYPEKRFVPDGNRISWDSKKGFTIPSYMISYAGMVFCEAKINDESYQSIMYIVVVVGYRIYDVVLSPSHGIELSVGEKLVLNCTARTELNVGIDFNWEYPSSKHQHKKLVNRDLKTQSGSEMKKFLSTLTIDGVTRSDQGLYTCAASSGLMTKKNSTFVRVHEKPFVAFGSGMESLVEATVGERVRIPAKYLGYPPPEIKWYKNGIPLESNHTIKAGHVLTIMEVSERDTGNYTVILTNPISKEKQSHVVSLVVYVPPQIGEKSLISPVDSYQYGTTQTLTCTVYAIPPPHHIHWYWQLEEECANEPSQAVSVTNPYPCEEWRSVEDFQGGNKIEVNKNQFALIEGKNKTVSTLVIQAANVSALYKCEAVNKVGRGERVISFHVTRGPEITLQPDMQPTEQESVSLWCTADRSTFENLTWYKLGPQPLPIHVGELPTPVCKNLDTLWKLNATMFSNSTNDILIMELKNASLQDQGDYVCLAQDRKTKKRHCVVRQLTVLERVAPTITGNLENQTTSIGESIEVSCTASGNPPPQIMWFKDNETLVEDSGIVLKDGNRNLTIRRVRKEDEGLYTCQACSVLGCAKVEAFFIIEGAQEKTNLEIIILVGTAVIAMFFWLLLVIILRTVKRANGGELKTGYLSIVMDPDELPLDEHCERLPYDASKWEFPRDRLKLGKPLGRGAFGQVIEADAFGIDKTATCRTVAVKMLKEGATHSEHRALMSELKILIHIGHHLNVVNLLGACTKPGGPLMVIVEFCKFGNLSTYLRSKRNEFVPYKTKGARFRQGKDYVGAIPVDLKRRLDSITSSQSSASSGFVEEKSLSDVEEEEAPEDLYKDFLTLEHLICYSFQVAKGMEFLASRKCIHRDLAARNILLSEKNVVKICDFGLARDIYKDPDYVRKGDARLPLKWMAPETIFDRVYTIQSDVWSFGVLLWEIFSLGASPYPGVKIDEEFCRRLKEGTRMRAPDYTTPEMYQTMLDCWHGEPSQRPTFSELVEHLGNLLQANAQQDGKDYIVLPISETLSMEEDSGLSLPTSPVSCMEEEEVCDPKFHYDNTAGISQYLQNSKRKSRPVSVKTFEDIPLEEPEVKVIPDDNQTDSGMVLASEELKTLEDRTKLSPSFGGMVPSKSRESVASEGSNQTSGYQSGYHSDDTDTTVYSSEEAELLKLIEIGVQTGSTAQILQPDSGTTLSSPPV
# [11] = biological target: T5, Androgen receptor (Homo sapiens, UniProt P10275)
# T5 sequence (P10275 whole entry): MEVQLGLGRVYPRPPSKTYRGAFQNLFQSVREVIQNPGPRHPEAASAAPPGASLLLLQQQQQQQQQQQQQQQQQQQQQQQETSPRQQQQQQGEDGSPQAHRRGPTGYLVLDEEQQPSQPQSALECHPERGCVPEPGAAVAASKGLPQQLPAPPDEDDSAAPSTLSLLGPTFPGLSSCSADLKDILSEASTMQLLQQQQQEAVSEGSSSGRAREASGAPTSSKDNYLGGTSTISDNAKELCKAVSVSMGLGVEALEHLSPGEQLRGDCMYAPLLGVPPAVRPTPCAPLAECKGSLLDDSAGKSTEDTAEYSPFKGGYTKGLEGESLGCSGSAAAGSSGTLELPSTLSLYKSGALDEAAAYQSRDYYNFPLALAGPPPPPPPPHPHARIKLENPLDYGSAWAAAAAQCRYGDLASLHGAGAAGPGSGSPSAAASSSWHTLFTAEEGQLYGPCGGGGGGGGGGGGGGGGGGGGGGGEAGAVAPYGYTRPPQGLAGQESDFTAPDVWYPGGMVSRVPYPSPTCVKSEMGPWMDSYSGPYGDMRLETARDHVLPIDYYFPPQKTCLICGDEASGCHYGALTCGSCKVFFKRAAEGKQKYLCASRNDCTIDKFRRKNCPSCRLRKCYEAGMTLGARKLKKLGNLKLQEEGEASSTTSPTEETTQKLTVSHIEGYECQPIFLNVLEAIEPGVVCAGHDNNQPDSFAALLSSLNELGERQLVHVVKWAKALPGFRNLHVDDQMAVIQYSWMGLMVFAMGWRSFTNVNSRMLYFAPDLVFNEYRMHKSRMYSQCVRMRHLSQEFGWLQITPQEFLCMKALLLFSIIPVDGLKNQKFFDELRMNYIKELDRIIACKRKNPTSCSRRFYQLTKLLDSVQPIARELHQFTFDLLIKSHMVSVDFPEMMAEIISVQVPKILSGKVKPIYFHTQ
# Note: assay procedure not described here.
Structure (SMILES),AC50 [1] [µM],AC50 [2] [µM],AC50 [3] [µM],AC50 [4] [µM],AC50 [5] [µM],AC50 [6] [µM],AC50 [7] [µM],AC50 [8] [µM],AC50 [9] [µM],AC50 [10] [µM],AC50 [11] [µM]
CCOc1nc2cccc(C(=O)O)c2n1Cc1ccc(-c2ccccc2-c2nnn[nH]2)cc1,> 30,> 30,> 30,> 30,16,> 30,> 30,13,,,
CCCc1nc2c(C)cc(-c3nc4ccccc4n3C)cc2n1Cc1ccc(-c2ccccc2C(=O)O)cc1,3.96,> 30,> 30,> 30,6.33,7.1,> 30,> 30,17.4,> 10,
CCOc1cc([C@@H](CS(C)(=O)=O)N2C(=O)c3cccc(NC(C)=O)c3C2=O)ccc1OC,> 30,> 30,> 30,> 30,4.5,,> 30,> 30,,,
CC(=O)NO [ACETOHYDROXAMIC ACID],,,,,,,,,> 30,,> 30
CC1(C)S[C@@H]2[C@H](NC(=O)C(C(=O)O)c3ccccc3)C(=O)N2[C@H]1C(=O)O (stereo not given in full) [CARBENICILLIN],> 30,> 30,> 30,> 30,> 30,> 30,> 30,> 30,,,
Cc1nnc(SCC2=C(C(=O)O)N3C(=O)[C@@H](NC(=O)Cn4cnnn4)[C@H]3SC2)s1 [CEFAZOLIN],> 300,> 300,> 300,> 300,> 300,> 300,> 300,> 300,,,
CC(C)(O/N=C(\C(=O)N[C@@H]1C(=O)N2C(C(=O)[O-])=C(C[n+]3ccccc3)CS[C@H]12)c1csc(N)n1)C(=O)O [CEFTAZIDIME],> 300,> 300,> 300,> 300,> 300,> 300,> 300,> 300,,,
CCCNC(=O)NS(=O)(=O)c1ccc(Cl)cc1 [CHLORPROPAMIDE],> 10,> 30,> 30,> 30,> 10,> 30,> 30,> 30,,,
Cc1nc(Nc2ncc(C(=O)Nc3c(C)cccc3Cl)s2)cc(N2CCN(CCO)CC2)n1 [DASATINIB],> 10,> 30,> 30,> 30,6.3,28,> 30,> 30,,,
CC(C)Cc1ccc([C@H](C)C(=O)O)cc1 [DEXIBUPROFEN],> 30,> 30,> 30,> 30,> 30,> 30,> 30,> 30,,,
